Molecules are shown by their SMILES. Starred links: 1 amine or outer side, 2 acyl side, 3 side chain; linkers in the order of their positions; H or OH if unused. Non-standard residues stand in square brackets, D forms with d. Residues, ends and D or L forms follow the SMILES beside them. Groups on a side chain read outwards from the residue. *: point of attachment. C18 diacid = O=C(O)CCCCCCCCCCCCCCCCC(=O)*; αMePhe(2-F) = C[C@](N)(Cc1ccccc1F)C(=O)O; γGlu = O=C(O)[C@H](CCC(=O)[*:2])N[*:1]; αMeY = C[C@](N)(Cc1ccc(O)cc1)C(=O)O; 4Pal = N[C@@H](Cc1ccncc1)C(=O)O; αMeL = CC(C)C[C@](C)(N)C(=O)O; αMeS = C[C@](N)(CO)C(=O)O; Orn = NCCC[C@H](N)C(=O)O; AEEA = NCCOCCOCC(=O)O; Aib = CC(C)(N)C(=O)O

Holding throughout (type): cell-based
Assay [1] has as its target T1, hGLP-1R (Homo sapiens, UniProt P43220). The assay can be described thus: Functional cAMP activation in the presence of 0.1% casein (no HSA). Particulars: in the presence of 0.1% casein (no HSA); geometric mean; read-out: Relative cAMP EC50, hGLP-1R.
Assay [2] addresses T2, hGIPR (Homo sapiens, UniProt P48546).
T2 sequence (P48546 22-466): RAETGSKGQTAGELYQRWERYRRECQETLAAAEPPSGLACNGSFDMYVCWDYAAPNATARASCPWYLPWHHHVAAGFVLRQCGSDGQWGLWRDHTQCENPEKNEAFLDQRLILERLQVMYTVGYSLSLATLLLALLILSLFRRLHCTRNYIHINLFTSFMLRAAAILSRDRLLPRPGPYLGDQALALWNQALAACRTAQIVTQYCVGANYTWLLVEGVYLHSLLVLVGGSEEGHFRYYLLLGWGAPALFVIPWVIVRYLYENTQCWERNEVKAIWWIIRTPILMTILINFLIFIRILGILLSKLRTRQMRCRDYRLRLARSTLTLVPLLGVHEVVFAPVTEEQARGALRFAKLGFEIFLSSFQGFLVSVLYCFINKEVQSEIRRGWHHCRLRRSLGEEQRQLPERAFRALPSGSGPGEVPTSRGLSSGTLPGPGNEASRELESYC
The description is as above. Particulars: in the presence of 0.1% casein (no HSA); geometric mean; read-out: Relative cAMP EC50, hGIPR.

Assay [3] has as its target human GcgR (Homo sapiens, UniProt P47871). The assay can be described thus: Functional cAMP activity in the presence of 1% HSA. Particulars: read-out: cAMP Rel EC50, hGcgR.
For assay [4], the target named is T1, hGLP-1R. The assay can be described thus: Functional cAMP activity in the presence of 1% HSA. Particulars: read-out: cAMP Rel EC50, hGLP-1R.
Assay [5] deals with hGcgR (Homo sapiens, UniProt P47871). The assay can be described thus: Functional cAMP activation in the presence of 0.1% casein (no HSA). Particulars: in the presence of 0.1% casein (no HSA); geometric mean; read-out: Relative cAMP EC50, hGcgR.
hGcgR, sequence (P47871 26-477): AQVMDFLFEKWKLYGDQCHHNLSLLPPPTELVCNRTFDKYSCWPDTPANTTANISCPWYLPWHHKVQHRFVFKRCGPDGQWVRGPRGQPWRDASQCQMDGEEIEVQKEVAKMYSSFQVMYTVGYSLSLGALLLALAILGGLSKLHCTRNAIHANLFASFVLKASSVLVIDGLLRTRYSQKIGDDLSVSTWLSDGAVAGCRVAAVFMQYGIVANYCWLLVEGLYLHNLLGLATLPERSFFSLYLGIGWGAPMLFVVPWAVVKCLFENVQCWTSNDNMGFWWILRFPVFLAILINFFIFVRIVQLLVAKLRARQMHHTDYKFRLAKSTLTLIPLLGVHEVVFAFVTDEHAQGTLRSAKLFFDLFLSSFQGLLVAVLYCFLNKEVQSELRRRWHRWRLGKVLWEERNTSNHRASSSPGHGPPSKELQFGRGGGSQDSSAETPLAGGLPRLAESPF
For assay [6], the target named is T2, hGIPR. The assay can be described thus: Functional cAMP activity in the presence of 1% HSA. Particulars: read-out: cAMP Rel EC50, hGIPR.
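For Relative cAMP EC50, hGIPR in this document: intracellular cAMP rise after 30 min at 37 °C read by HTRF against a standard curve, scaled between buffer alone (0%) and top control ligand concentration (100%), four-parameter fit.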
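For Relative cAMP EC50, hGLP-1R in this document: intracellular cAMP rise after 30 min at 37 °C read by HTRF, normalized between buffer only (0%) and maximal control ligand (100%), four-parameter variable-slope fit.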
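For Relative cAMP EC50, hGcgR in this document: intracellular cAMP rise after 30 min at 37 °C, read by HTRF against a cAMP standard curve, scaled from buffer only (0%) to maximal control ligand response (100%).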

human GcgR, sequence (P47871 26-477): as above
T1 sequence (P43220 24-463): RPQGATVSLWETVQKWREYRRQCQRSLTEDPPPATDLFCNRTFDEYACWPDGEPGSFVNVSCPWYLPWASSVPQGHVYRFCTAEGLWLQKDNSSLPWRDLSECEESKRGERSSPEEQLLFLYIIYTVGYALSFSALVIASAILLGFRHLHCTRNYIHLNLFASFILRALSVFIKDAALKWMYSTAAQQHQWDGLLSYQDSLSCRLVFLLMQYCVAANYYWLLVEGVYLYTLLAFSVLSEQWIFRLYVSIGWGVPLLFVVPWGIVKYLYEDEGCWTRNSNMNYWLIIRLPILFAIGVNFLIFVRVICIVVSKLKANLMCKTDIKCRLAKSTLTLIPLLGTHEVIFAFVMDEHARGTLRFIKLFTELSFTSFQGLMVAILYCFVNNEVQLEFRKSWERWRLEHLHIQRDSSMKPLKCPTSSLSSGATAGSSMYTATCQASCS

Take `CC[C@H](C)[C@H](NC(=O)[C@H](Cc1ccccc1)NC(=O)[C@H](CCCN)NC(=O)C(C)(C)NC(=O)[C@H](CCC(N)=O)NC(=O)[C@H](C)NC(=O)[C@H](CCCCNC(=O)COCCOCCNC(=O)CC[C@H](NC(=O)CCCCCCCCCCCCCCCCC(=O)O)C(=O)O)NC(=O)[C@H](CCCN)NC(=O)[C@H](CC(=O)O)NC(=O)[C@H](CC(C)C)NC(=O)[C@](C)(CC(C)C)NC(=O)[C@@H](NC(=O)[C@H](CO)NC(=O)[C@H](Cc1ccncc1)NC(=O)[C@H](CC(=O)O)NC(=O)[C@H](CO)NC(=O)[C@@H](NC(=O)[C@](C)(Cc1ccccc1F)NC(=O)[C@@H](NC(=O)CNC(=O)[C@H](CCC(N)=O)NC(=O)C(C)(C)NC(=O)[C@@H](N)Cc1ccc(O)cc1)[C@@H](C)O)[C@@H](C)O)[C@@H](C)CC)C(=O)N[C@H](CCC(=O)O)C(=O)N[C@@](C)(Cc1ccc(O)cc1)C(=O)N[C@@H](CC(C)C)C(=O)N[C@@H](CC(C)C)C(=O)N[C@@H](CCC(=O)O)C(=O)NCC(=O)NCC(=O)N1CCC[C@H]1C(=O)N[C@@H](CO)C(=O)N[C@@H](CO)C(=O)NCC(=O)N[C@@H](CCC(=O)O)C(=O)N1CCC[C@H]1C(=O)N1CCC[C@H]1C(=O)N1CCC[C@H]1C(=O)N[C@@H](CCC(=O)O)C(N)=O` [Example 370] (H-Y[Aib]QGT[αMePhe(2-F)]TSD[4Pal]SI[αMeL]LD[Orn]K([AEEA-γGlu-C18 diacid])AQ[Aib][Orn]FI[dE][αMeY]LLEGGPSSGEPPPE-NH2): the EC50 in assay [1] was 0.406 nM; in assay [2] it was 0.027 nM; in assay [3] it was 803 nM; in assay [4], 37.5 nM; in assay [5], 7.06 nM; in assay [6], 4.23 nM.

`CC[C@H](C)[C@H](NC(=O)[C@H](Cc1ccccc1)NC(=O)[C@H](CCCN)NC(=O)C(C)(C)NC(=O)[C@H](CCC(N)=O)NC(=O)[C@H](C)NC(=O)[C@H](CCCCNC(=O)CC[C@H](NC(=O)CC[C@H](NC(=O)CCCCCCCCCCCCCCCCC(=O)O)C(=O)O)C(=O)O)NC(=O)[C@H](CCCN)NC(=O)[C@H](CC(=O)O)NC(=O)[C@H](CC(C)C)NC(=O)[C@](C)(CC(C)C)NC(=O)[C@@H](NC(=O)[C@H](CO)NC(=O)[C@H](Cc1ccncc1)NC(=O)[C@H](CC(=O)O)NC(=O)[C@H](CO)NC(=O)[C@@H](NC(=O)[C@](C)(Cc1ccccc1F)NC(=O)[C@@H](NC(=O)CNC(=O)[C@H](CCC(N)=O)NC(=O)C(C)(C)NC(=O)[C@@H](N)Cc1ccc(O)cc1)[C@@H](C)O)[C@@H](C)O)[C@@H](C)CC)C(=O)N[C@H](CCC(=O)O)C(=O)N[C@@](C)(Cc1ccc(O)cc1)C(=O)N[C@@H](CC(C)C)C(=O)N[C@@H](CC(C)C)C(=O)N[C@@H](CCC(=O)O)C(=O)NCC(=O)NCC(=O)N1CCC[C@H]1C(=O)N[C@@H](CO)C(=O)N[C@@H](CO)C(=O)NCC(=O)N[C@@H](CCC(=O)O)C(=O)N1CCC[C@H]1C(=O)N1CCC[C@H]1C(=O)N1CCC[C@H]1C(=O)N[C@@H](CO)C(N)=O` [Example 371]: the concentration for a half-maximal effect (EC50) in assay [1] came out at 0.327 nM; in assay [2] it was 0.0128 nM; in assay [3], 463 nM; in assay [4], 47.4 nM; in assay [5], 4.46 nM; in assay [6], 1.47 nM.

As to `CC[C@H](C)[C@H](NC(=O)[C@H](Cc1ccccc1)NC(=O)[C@H](CCCN)NC(=O)C(C)(C)NC(=O)[C@H](CCC(N)=O)NC(=O)[C@H](C)NC(=O)[C@H](CCCCNC(=O)CC[C@H](NC(=O)CC[C@H](NC(=O)CCCCCCCCCCCCCCCCC(=O)O)C(=O)O)C(=O)O)NC(=O)[C@H](CCCN)NC(=O)[C@H](CC(=O)O)NC(=O)[C@H](CC(C)C)NC(=O)[C@](C)(CC(C)C)NC(=O)[C@@H](NC(=O)[C@H](CO)NC(=O)[C@H](Cc1ccncc1)NC(=O)[C@H](CC(=O)O)NC(=O)[C@H](CO)NC(=O)[C@@H](NC(=O)[C@](C)(Cc1ccccc1F)NC(=O)[C@@H](NC(=O)CNC(=O)[C@H](CCC(N)=O)NC(=O)C(C)(C)NC(=O)[C@@H](N)Cc1ccc(O)cc1)[C@@H](C)O)[C@@H](C)O)[C@@H](C)CC)C(=O)N[C@H](CCC(=O)O)C(=O)N[C@@](C)(Cc1ccc(O)cc1)C(=O)N[C@@H](CC(C)C)C(=O)N[C@@H](CC(C)C)C(=O)N[C@@H](CCC(=O)O)C(=O)NCC(=O)NCC(=O)N1CCC[C@H]1C(=O)N[C@@H](CO)C(=O)N[C@@H](CO)C(=O)NCC(=O)N[C@@H](CCC(=O)O)C(=O)N1CCC[C@H]1C(=O)N1CCC[C@H]1C(=O)N1CCC[C@H]1C(=O)N[C@@H](CCC(=O)O)C(N)=O` [Example 372] (H-Y[Aib]QGT[αMePhe(2-F)]TSD[4Pal]SI[αMeL]LD[Orn]K([γGlu-γGlu-C18 diacid])AQ[Aib][Orn]FI[dE][αMeY]LLEGGPSSGEPPPE-NH2), the EC50 in assay [1] worked out at 0.333 nM; in assay [2], 0.0161 nM; in assay [3] it was 468 nM; in assay [4], 53.1 nM; in assay [5], 7.54 nM; in assay [6], 2.63 nM.

Turning to `CC[C@H](C)[C@H](NC(=O)[C@H](Cc1ccccc1)NC(=O)[C@H](CCCN)NC(=O)C(C)(C)NC(=O)[C@H](CCC(N)=O)NC(=O)[C@H](C)NC(=O)[C@H](CCCCNC(=O)CC[C@H](NC(=O)CC[C@H](NC(=O)CCCCCCCCCCCCCCCCC(=O)O)C(=O)O)C(=O)O)NC(=O)[C@H](CCCN)NC(=O)[C@H](CC(=O)O)NC(=O)[C@H](CC(C)C)NC(=O)[C@](C)(CC(C)C)NC(=O)[C@@H](NC(=O)[C@H](CO)NC(=O)[C@H](Cc1ccncc1)NC(=O)[C@H](CC(=O)O)NC(=O)[C@H](CO)NC(=O)[C@@H](NC(=O)[C@](C)(Cc1ccccc1F)NC(=O)[C@@H](NC(=O)CNC(=O)[C@H](CCC(N)=O)NC(=O)C(C)(C)NC(=O)[C@@H](N)Cc1ccc(O)cc1)[C@@H](C)O)[C@@H](C)O)[C@@H](C)CC)C(=O)N[C@H](CCC(=O)O)C(=O)N[C@@](C)(Cc1ccc(O)cc1)C(=O)N[C@@H](CC(C)C)C(=O)N[C@@H](CC(C)C)C(=O)N[C@@H](CCC(=O)O)C(=O)NCC(=O)NCC(=O)N1CCC[C@H]1C(=O)N[C@@H](CO)C(=O)N[C@@H](CO)C(=O)NC(C)(C)C(=O)N[C@@H](CCC(=O)O)C(=O)N1CCC[C@H]1C(=O)N1CCC[C@H]1C(=O)N1CCC[C@H]1C(=O)N[C@@H](CCC(=O)O)C(N)=O` [Example 373] (H-Y[Aib]QGT[αMePhe(2-F)]TSD[4Pal]SI[αMeL]LD[Orn]K([γGlu-γGlu-C18 diacid])AQ[Aib][Orn]FI[dE][αMeY]LLEGGPSS[Aib]EPPPE-NH2), the concentration giving a half-maximal response (EC50) in assay [1] is 0.392 nM; in assay [2] it was 0.0183 nM; in assay [3], 666 nM; in assay [4] it was 54.5 nM; in assay [5], 4.48 nM; in assay [6], 1.97 nM.

As to `CC[C@H](C)[C@H](NC(=O)[C@H](Cc1ccccc1)NC(=O)[C@H](CCCN)NC(=O)C(C)(C)NC(=O)[C@H](CCC(N)=O)NC(=O)[C@H](C)NC(=O)[C@H](CCCCNC(=O)CC[C@H](NC(=O)CC[C@H](NC(=O)CCCCCCCCCCCCCCCCC(=O)O)C(=O)O)C(=O)O)NC(=O)[C@H](CCCN)NC(=O)[C@H](CC(=O)O)NC(=O)[C@H](CC(C)C)NC(=O)[C@](C)(CC(C)C)NC(=O)[C@@H](NC(=O)[C@](C)(CO)NC(=O)[C@H](Cc1ccncc1)NC(=O)[C@H](CC(=O)O)NC(=O)[C@H](CO)NC(=O)[C@@H](NC(=O)[C@](C)(Cc1ccccc1F)NC(=O)[C@@H](NC(=O)CNC(=O)[C@H](CCC(N)=O)NC(=O)C(C)(C)NC(=O)[C@@H](N)Cc1ccc(O)cc1)[C@@H](C)O)[C@@H](C)O)[C@@H](C)CC)C(=O)N[C@H](CCC(=O)O)C(=O)N[C@@](C)(Cc1ccc(O)cc1)C(=O)N[C@@H](CC(C)C)C(=O)N[C@@H](CC(C)C)C(=O)N[C@@H](CCC(=O)O)C(=O)NCC(=O)NCC(=O)N1CCC[C@H]1C(=O)N[C@@H](CO)C(=O)N[C@@H](CO)C(=O)NCC(=O)N[C@@H](CCC(=O)O)C(=O)N1CCC[C@H]1C(=O)N1CCC[C@H]1C(=O)N1CCC[C@H]1C(=O)N[C@@H](CO)C(N)=O` [Example 374] (H-Y[Aib]QGT[αMePhe(2-F)]TSD[4Pal][αMeS]I[αMeL]LD[Orn]K([γGlu-γGlu-C18 diacid])AQ[Aib][Orn]FI[dE][αMeY]LLEGGPSSGEPPPS-NH2), the EC50 in assay [1] came to 0.336 nM; in assay [2], 0.0186 nM; in assay [3] it was 65.4 nM; in assay [4], 24.5 nM; in assay [5], 0.908 nM; in assay [6] it was 2.28 nM.

These data come from US20240270821A1, “GIP/GLP1/GCG TRI-RECEPTOR AGONISTS AND USES THEREOF” (priority 2023, published 2024).
